Measurements: patent US9469650B2, “Melampomagnolide B derivatives” (BOARD OF TRUSTEES OF THE UNIVERSITY OF ARKANSAS, priority 2013, dated 2016)
Read-outs that look alike come from different tables or passages of the source.

Tests used:
[1] = system: AML 052308 cells
Excerpt: (§1) Derivatives were screened for antileukemic activity against AML cells in culture (See FIGS. 1-7).

[2] = system: AML 052308 cells; assay: cells; settings: read-out: LC50
Excerpt: as §1

[3] = system: AML 100510 primary isolate; assay: antileukemic activity, cell viability
[4] = system: AML 123009 primary isolate; assay: antileukemic activity, cell viability
[5] = system: M9 ENL cells; assay: antileukemic activity, cell viability; settings: M9 ENL cell line
Description: Carbamate and carbonate derivatives of MMB were also screened for activity against M9 ENL cells at concentrations of 5, 10 and 20 μM (FIG. 10). […] Additionally, succinic amide derivatives of MMB were screened for activity against M9 ENL cells at concentrations of 5, 10 and 20 μM (FIG. 11).

[6] = system: RXF 393; settings: values obtained from NCI database; cited from earlier work
[7] = system: MDA-MB-435; settings: values obtained from NCI database; cited from earlier work
[8] = system: M14; settings: values obtained from NCI database; cited from earlier work
[9] = system: TK-10; settings: values obtained from NCI database; cited from earlier work
[10] = system: SW-620; settings: values obtained from NCI database; cited from earlier work
[11] = system: HOP-92; settings: values obtained from NCI database; cited from earlier work
[12] = system: HCT-116; settings: values obtained from NCI database; cited from earlier work
[13] = system: RPMI-8226; settings: values obtained from NCI database; cited from earlier work
[14] = system: CAKI-1; settings: values obtained from NCI database; cited from earlier work
[15] = system: IGROV1; settings: values obtained from NCI database; cited from earlier work
[16] = system: MOLT-4; settings: values obtained from NCI database; cited from earlier work
[17] = system: HL-60(TB); settings: values obtained from NCI database; cited from earlier work
[18] = system: T-47D; settings: values obtained from NCI database; cited from earlier work
[19] = system: NCI-H522; settings: values obtained from NCI database; cited from earlier work
[20] = system: LOX IMVI; settings: values obtained from NCI database; cited from earlier work
[21] = system: ACHN; settings: values obtained from NCI database; cited from earlier work
[22] = system: CCRF-CEM; settings: values obtained from NCI database; cited from earlier work
[23] = system: MCF7; settings: values obtained from NCI database; cited from earlier work
[24] = system: BT-549; settings: values obtained from NCI database; cited from earlier work
[25] = system: COLO 205; settings: values obtained from NCI database; cited from earlier work
[26] = system: OVCAR-3; settings: values obtained from NCI database; cited from earlier work
[27] = system: SF-539; settings: values obtained from NCI database; cited from earlier work
[28] = system: K-562; settings: values obtained from NCI database; cited from earlier work
[29] = system: DU-145; settings: values obtained from NCI database; cited from earlier work
[30] = system: RXF 393; assay: panel of 60 human tumor cell lines, growth inhibition (Renal Cancer); settings: Homo sapiens, RXF 393, RXF 393; 5-dose assay
[31] = system: MALME-3M; assay: panel of 60 human tumor cell lines, growth inhibition (Melanoma); settings: Homo sapiens, Malme-3M
[32] = system: RPMI-8226; assay: panel of 60 human tumor cell lines, growth inhibition (Leukemia); settings: Homo sapiens, RPMI-8226
[33] = system: SNB-75; assay: panel of 60 human tumor cell lines, growth inhibition (CNS Cancer); settings: Homo sapiens, SNB-75
[34] = system: MDA-MB-435; assay: panel of 60 human tumor cell lines, growth inhibition (Melanoma); settings: Homo sapiens, MDA-MB-435
[35] = system: IGROV1; assay: panel of 60 human tumor cell lines, growth inhibition (Ovarian Cancer); settings: Homo sapiens, IGROV-1
[36] = system: SF-539; assay: panel of 60 human tumor cell lines, growth inhibition (CNS Cancer); settings: Homo sapiens, SF-539
[37] = system: COLO 205; assay: panel of 60 human tumor cell lines, growth inhibition (Colon Cancer); settings: Homo sapiens, COLO 205
[38] = system: MCF7; assay: panel of 60 human tumor cell lines, growth inhibition (Breast Cancer); settings: Homo sapiens, MCF7, MCF7; 5-dose assay
[39] = system: BT-549; assay: as above; settings: Homo sapiens, BT-549
[40] = system: NCI-H522; assay: panel of 60 human tumor cell lines, growth inhibition (Non-Small Cell Lung Cancer); settings: Homo sapiens, NCI-H522
[41] = system: OVCAR-3; assay: panel of 60 human tumor cell lines, growth inhibition (Ovarian Cancer); settings: Homo sapiens, OVCAR-3
[42] = system: M14; assay: panel of 60 human tumor cell lines, growth inhibition (Melanoma); settings: Homo sapiens, M14
[43] = hydrolytic stability in human plasma; assay type: in vitro ADME
[44] = system: HCT-116; assay: panel of 60 human tumor cell lines, growth inhibition (Colon Cancer); settings: Homo sapiens, HCT-116, HCT-116; 5-dose assay
[45] = system: K-562; assay: panel of 60 human tumor cell lines, growth inhibition (Leukemia); settings: Homo sapiens, K562
[46] = system: panel of 60 human tumor cell lines; assay: panel of 60 human tumor cell lines, whole panel or sub-panel (single concentration screen, summaries); assay type: cell-based; settings: range over 6a and 6e
[47] = system: ACHN; assay: panel of 60 human tumor cell lines, growth inhibition (Renal Cancer); settings: Homo sapiens
[48] = system: LOX IMVI; assay: panel of 60 human tumor cell lines, growth inhibition (Melanoma); settings: Homo sapiens, 5-dose assay
[49] = system: TK-10; assay: panel of 60 human tumor cell lines, growth inhibition (Renal Cancer); settings: Homo sapiens, TK-10, TK-10; 5-dose assay
[50] = system: T-47D; assay: panel of 60 human tumor cell lines, growth inhibition (Breast Cancer); settings: Homo sapiens, T47D
[51] = system: CCRF-CEM; assay: panel of 60 human tumor cell lines, growth inhibition (Leukemia); settings: Homo sapiens
[52] = system: SR; assay: as above; settings: Homo sapiens
[53] = system: MDA-MB-468; assay: panel of 60 human tumor cell lines, growth inhibition (Breast Cancer); settings: Homo sapiens, MDA-MB-468
[54] = system: MOLT-4; assay: panel of 60 human tumor cell lines, growth inhibition (Leukemia); settings: Homo sapiens, MOLT-4
[55] = system: CAKI-1; assay: panel of 60 human tumor cell lines, growth inhibition (Renal Cancer); settings: Homo sapiens, CAKI-1
[56] = system: HOP-92; assay: panel of 60 human tumor cell lines, growth inhibition (Non-Small Cell Lung Cancer); settings: Homo sapiens, HOP-92, HOP-92; 5-dose assay
[57] = system: DU-145; assay: panel of 60 human tumor cell lines, growth inhibition (Prostate Cancer); settings: Homo sapiens, DU-145
[58] = system: HL-60(TB); assay: cells; settings: Homo sapiens, HL-60
[59] = system: SW-620; assay: panel of 60 human tumor cell lines, growth inhibition (Colon Cancer); settings: Homo sapiens, SW-620, SW-620; 5-dose assay

C=C1C(=O)O[C@H]2[C@H]1CC/C(COC(=O)NCc1ccccn1)=C\CC[C@@]1(C)O[C@@H]21 [JVM 74]
cytotoxicity compared to MMB [1]: almost equal cytotoxicity to MMB

C=C1C(=O)OC2C1CC/C(CO)=C\CCC1(C)OC21 (centres unmarked) [MMB, Melampomagnolide B]
CC50 [2]: 16 µM

C=C1C(=O)O[C@H]2[C@H]1CC/C(COC(=O)CCN1CCCCC1)=C\CC[C@@]1(C)O[C@@H]21 [JVM 88]
antileukemic activity compared to MMB [3]: good antileukemic activity compared to MMB
antileukemic activity compared to MMB [4]: good antileukemic activity compared to MMB
antileukemic activity compared to MMB [5]: good antileukemic activity compared to MMB

C/C1=C\CC[C@@]2(C)O[C@@H]2[C@H]2OC(=O)[C@H](CN(C)C)[C@@H]2CC1 [DMAPT, dimethylaminoparthenolide]
GI50 [6]: 15.8 µM
GI50 [7]: 7.94 µM
GI50 [8]: 15.8 µM
GI50 [9]: 3.16 µM
GI50 [10]: 3.98 µM
GI50 [11]: 10 µM
GI50 [12]: 5.01 µM
GI50 [13]: 2510 nM
GI50 [14]: 12.5 µM
GI50 [15]: 19.9 µM
GI50 [16]: 3.16 µM
GI50 [17]: 1580 nM
GI50 [18]: 39.8 µM
GI50 [19]: 2510 nM
GI50 [20]: 10 µM
GI50 [21]: 15.8 µM
GI50 [22]: 1990 nM
GI50 [23]: 5.01 µM
GI50 [24]: 5.01 µM
GI50 [25]: 31.6 µM
GI50 [26]: 12.5 µM
GI50 [27]: 2510 nM
GI50 [28]: 2510 nM
GI50 [29]: 5.01 µM

C=C1C(=O)O[C@H]2[C@H]1CC/C(COC(=O)N1CCC(F)(F)CC1)=C\CC[C@@]1(C)O[C@@H]21 [6a, ((1aR,7aS,10aS,10bS,E)-1a-methyl-8-methylene-9-oxo-1a,2,3,6,7,7a,8,9,10a,10b-decahydrooxireno[2′,3′:9,10]cyclodeca[1,2-b]furan-5-yl)methyl-4,4-difluoropiperidine-1-carboxylate]
GI50 [30]: 1200 nM
GI50 [31]: 1900 nM
GI50 [32]: 1980 nM
GI50 [33]: 6.13 µM
GI50 [34]: 460 nM
GI50 [35]: 2310 nM
GI50 [36]: 1980 nM
GI50 [37]: 2060 nM
GI50 [38]: 1620 nM
GI50 [39]: 2690 nM
GI50 [40]: 1250 nM
GI50 [41]: 1690 nM
GI50 [42]: 2840 nM
melting point: 150 °C
half-life [43]: 480 min
GI50 [44]: 1410 nM
GI50 [45]: 3.45 µM
GI50 ([46]; sub-panel breast cancer): 570 to 3070 nM
GI50 ([46]; sub-panel colon cancer): 1120 to 2060 nM
GI50 ([46]; sub-panel melanoma): 460 to 2840 nM
GI50 ([46]; sub-panel non-small cell lung cancer): 650 to 1450 nM
GI50 ([46]; sub-panel renal cancer): 900 to 2600 nM
GI50 [47]: 1790 nM
GI50 [48]: 2230 nM
GI50 [49]: 2600 nM
GI50 [50]: 3.07 µM
GI50 ([51]; 5-dose assay): 680 nM
GI50 ([51]; leukemia cell line CCRF-CEM): 680 nM
GI50 [52]: 1380 nM
GI50 [53]: 570 nM
GI50 [54]: 2050 nM
GI50 [55]: 2030 nM
GI50 [56]: 1450 nM
GI50 [57]: 2440 nM
GI50 [58]: 2040 nM
GI50 [59]: 1460 nM

C=C1C(=O)O[C@H]2[C@H]1CC/C(COC(=O)NCCCn1ccnc1)=C\CC[C@@]1(C)O[C@@H]21 [JVM 58]
cytotoxicity compared to MMB [1]: less active than MMB

C=C1C(=O)O[C@H]2[C@H]1CC/C(COC(=O)NCCCN1CCOCC1)=C\CC[C@@]1(C)O[C@@H]21 [6g, ((1aR,7aS,10aS,10bS,E)-1a-methyl-8-methylene-9-oxo-1a,2,3,6,7,7a,8,9,10a,10b-decahydrooxireno[2′,3′:9,10]-cyclodeca[1,2-b]furan-5-yl)methyl-(3-morpholinopropyl)carbamate]
melting point: 60 °C

C=C1C(=O)O[C@H]2[C@H]1CC/C(COC(=O)NCCCn1ccnc1)=C\CC[C@@]1(C)O[C@@H]21 [6f, ((1aR,7aS,10aS,10bS,E)-1a-methyl-8-methylene-9-oxo-1a,2,3,6,7,7a,8,9,10a,10b-decahydrooxireno[2′,3′:9,10]cyclodeca[1,2-b]furan-5-yl)methyl-(3-(1H-imidazol-1-yl)-propyl)carbamate]
melting point: 70 °C
